In one data set the target is TrxR. Also on record: method as in PMID 27977313. To be noted: read-out: Ki value toward the enzyme; cited from earlier work.
The subject of data set [1] is TrxR1. To be noted: cited from earlier work.
Data set [2] addresses T1, TrxR1 (Rattus norvegicus, UniProt O89049).
T1 sequence (O89049 1-499): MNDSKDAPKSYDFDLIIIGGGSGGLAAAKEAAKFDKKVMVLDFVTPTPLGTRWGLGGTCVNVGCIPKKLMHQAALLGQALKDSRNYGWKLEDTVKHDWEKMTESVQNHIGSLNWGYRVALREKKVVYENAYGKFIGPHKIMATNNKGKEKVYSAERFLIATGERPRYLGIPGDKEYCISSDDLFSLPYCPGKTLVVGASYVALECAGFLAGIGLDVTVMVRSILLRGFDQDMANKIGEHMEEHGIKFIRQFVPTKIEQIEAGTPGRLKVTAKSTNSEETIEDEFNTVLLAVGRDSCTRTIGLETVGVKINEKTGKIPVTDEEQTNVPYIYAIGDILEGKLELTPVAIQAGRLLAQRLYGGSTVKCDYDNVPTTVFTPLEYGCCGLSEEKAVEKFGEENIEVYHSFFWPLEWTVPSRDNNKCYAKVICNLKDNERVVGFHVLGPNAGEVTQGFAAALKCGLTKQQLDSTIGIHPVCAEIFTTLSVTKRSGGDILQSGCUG
Kind of data set: TrxR inhibition assay (DTNB), rat liver (hepatocyte) lysate.
Procedure: (§3) For TrxR assay, lysate from SH-SY5Y cells and rat liver were used. SHSY5Y cells were washed twice with phosphate buffer solution (PBS) and harvested from the flask with a scraper. Cells were homogenised in ice-cold 50 mM potassium phosphate buffer (pH 7.4), containing 1 mM EDTA, with Ultra Turrax T25 (Ikawerk, Janke and Kunkel Inc., Staufen, Germany). The homogenates were centrifuged at 10,000 × g for 15 min at 4 °C. The protein concentrations of the supernatants were determined using a Bio-Rad protein assay kit (Bio-Rad Laboratories, USA). TrxR activity was assayed using 5,5-dithio-bis-(2-nitrobenzoic acid) (DTNB, Sigma-Aldrich, USA) as substrate[21]. The reactions were run on a 96-well plates, final volume of 100 µl in 50 mM potassium phosphate buffer (pH 7.0), containing 50 µg of the cell lysate proteins, 1-mM EDTA, 50 mM KCl, 0.2 mg/ml bovine serum albumin, 0.25 mM NADPH (Acros Organics, USA). Reaction mixture was incubated for 15 min at room temperature in plate shaker (PST-60HL-4, BioSan, Riga, Latvia); afterwards DTNB was added to the total concentration of 2.5 mM. Enzyme kinetics was monitored on a Tecan Infinite1000 microplate reader, by measuring the increase in absorbance at 412 nm for 20 min. The background TrxR-independent reduction of DTNB in the cell lysates, as determined in the presence of aurothiomalate (200 µM), was subtracted from each value[22]. Reaction mixture with rat liver lysate contained 35 µg of proteins, 1 mM EDTA, 50 mM KCl, 0.2 mg/ml bovine serum albumin, 0.25 mM NADPH, and 2.5 mM DTNB. Reactions with rat liver lysate were run in the same manner as cell lysates.

In data set [3] the target is T2, TrxR1 (Homo sapiens, UniProt Q16881).
T2 construct: For TrxR assay, lysate from SH-SY5Y cells and rat liver were used; endogenous in cells; host or cells: SH-SY5Y human neuroblastoma cells (10,000 x g supernatant of the homogenate)
T2 sequence (Q16881 151-649 limits assumed): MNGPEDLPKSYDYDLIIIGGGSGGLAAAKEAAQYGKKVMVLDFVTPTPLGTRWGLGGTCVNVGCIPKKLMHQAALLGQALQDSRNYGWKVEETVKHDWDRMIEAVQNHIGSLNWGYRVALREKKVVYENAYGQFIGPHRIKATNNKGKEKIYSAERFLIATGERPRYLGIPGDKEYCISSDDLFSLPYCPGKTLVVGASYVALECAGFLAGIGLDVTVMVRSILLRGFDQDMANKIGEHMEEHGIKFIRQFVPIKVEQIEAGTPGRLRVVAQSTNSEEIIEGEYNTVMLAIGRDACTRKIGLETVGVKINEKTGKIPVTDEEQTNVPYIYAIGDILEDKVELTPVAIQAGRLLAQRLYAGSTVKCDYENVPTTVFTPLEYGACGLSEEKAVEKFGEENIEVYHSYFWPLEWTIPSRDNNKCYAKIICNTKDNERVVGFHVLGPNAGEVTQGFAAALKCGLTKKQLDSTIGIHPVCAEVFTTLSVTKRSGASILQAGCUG
The data set is described as follows: TrxR inhibition assay (DTNB), SH-SY5Y cell lysate. In kind it is biochemical. To be noted: for IC50: neuroblastoma (SHSY5Y) lysate, mean ± SEM (n = 3).
Procedure: as §3

In another data set the test system is U87 cells. The data set is described as follows: Cytotoxicity assay (MTT), U87. In kind it is cell-based, human. To be noted: for CC50: U87 cells, 72 h, MTT, mean ± SEM (n = 3). The protocol: (§1) Human neuroblastoma cells (SH-SY5Y) were grown in 1:1 mixture of Eagle's Minimum Essential Medium and F12 Medium (Sigma) supplemented with 10% foetal bovine serum (Sigma). Human keratinocytes (HaCaT) were grown in DMEM, supplemented with 10% foetal bovine serum, 2 mM L-glutamine, 5000 U/ml penicillin, and 5 mg/ml streptomycin. Human glioblastoma cell (U87-MG) were grown in Minimum Essential Media (MEM), containing 10% foetal bovine serum, 2 mM L-glutamine, 5,000 U/ml penicillin, and 5 mg/ml streptomycin. All cell lines were obtained from American Type Culture Collection (ATCC, Rockville, MD). All cell lines were grown at 37 °C in a humidified 5% CO2 atmosphere.
(§2) Cells grown in 25 cm^2 tissue flasks were trypsinized, seeded into flat-bottomed adherent 96-well cell culture plates in appropriate medium (SH-SY5Y 12,000 cells/well, U87-MG 4000 cells/well, HaCaT 2000 cells/well) and incubated overnight; afterwards the cells were exposed to different concentrations of the tested compounds for 72 h. Cell viability was measured by MTT assay. Briefly, after incubation with the compounds, medium containing 0.2 mg/ml MTT was added. After incubation (3 h, 37 °C, 5% CO2), the MTT-containing medium was removed, and 200 µl of dimethyl sulfoxide (DMSO) was immediately added to each sample. The samples were assessed at 540 nm on LKB 5060–006 Microplate Reader (Vienna, Austria) microplate reader. The half-maximal inhibitory concentration (IC50) of each compound was calculated using Graph Pad Prism® 6.0 (GraphPad Software, Inc., USA).

The test system of another data set is SHSY5Y cells. Kind of data set: Cytotoxicity assay (MTT), SH-SY5Y. In kind it is cell-based, human. To be noted: 72 h, mean ± SEM (n = 3). The protocol:
as §1, §2

The next data set relates to HaCaT cells. The data set is described as follows: Cytotoxicity assay (MTT), HaCaT. To be noted: 72 h, mean ± SEM (n = 3). In kind it is cell-based, human. The method, then: as §1, §2
Data set [4] can be described thus: Cytotoxicity assay (MTT), U87. In kind it is cell-based, human. To be noted: human, U87-MG glioblastoma cells; U87 cells; 72 h; MTT; mean ± SEM (n = 3). The method, then: as §1, §2
A short description of data set [5]: Cytotoxicity assay (MTT), SH-SY5Y. To be noted: human, SH-SY5Y neuroblastoma cells, SHSY5Y cells, mean ± SEM (n = 3). In kind it is cell-based, human. The protocol: as §1, §2
The nature of data set [6]: Cytotoxicity assay (MTT), HaCaT. In kind it is cell-based, human. To be noted: human, HaCaT keratinocytes, HaCaT cells, mean ± SEM (n = 3). The method, then: as §1, §2
Data set [7] addresses T1, TrxR1.
Procedure: as §3
[8] abbreviates: TrxR IC50 Hepatocyte lysate, mean ± SEM (n = 3).
Where [9] appears, read: read-out: TrxR IC50 Hepatocyte lysate, mean ± SEM (n = 3).

Each structure is given as a SMILES string. Read-outs that look alike come from different tables or passages of the source.

With `CCC(C)SSc1ncc[nH]1` (stereo not shown) [Compound 2], the Ki (commonly a measure of affinity in units of concentration, obtained from inhibition or displacement) on TrxR is 31 µM.

Take `O=S(=O)(O)CCSSCCS(=O)(=O)O` [Compound 4, disodium 2,2′-dithio-bis-ethane sulphonate]: in the data set with TrxR1 [1] (TrxR substrate analogue, read-out: Km value), the Km (in general, the concentration of substrate that gives half-maximal velocity) is 72 µM.

As to `CN1C(=O)[C@@]23C[C@]4([C@]56C[C@@]78SS[C@@](CO)(C(=O)N7[C@H]5Nc5ccccc56)N(C)C8=O)c5ccccc5N[C@@H]4N2C(=O)[C@]1(CO)SS3` [Compound 5, chaetocin], in the data set on TrxR1 [1] (TrxR1, substrate-competitive inhibition profile, read-out: Km values), the Michaelis constant (Km) is 4.6 µM.

Consider `CN1C(=O)[C@]23CC4=CC=C[C@H](O)[C@H]4N2C(=O)[C@@]1(CO)SS3` [Compound 6, gliotoxin], for which, in the data set with TrxR1 [1] (read-out: Km values), the Km is 16.9 µM.

On to `O=C(CSSCC(=O)N1CCCC1)N1CCCC1` [Compound 11a, 2,2′-Disulfanediylbis(1-(pyrrolidin-1-yl)ethan-1-one)], for which the IC50 (usually the concentration needed to halve the response being measured) is 170 ± 54.2 µM on TrxR1 [2] (setting [8]) and above 200 µM on TrxR1 [3].

On to `CCCNC(=O)CSSCC(=O)NCCC` [Compound 11b], for which the half-maximal inhibitory concentration (IC50) on TrxR1 [2] (setting [9]) was 26.5 ± 2.9 µM; on TrxR1 [3] it was above 200 µM. Also, in the data set with U87 cells (U87, versus 11d, 11g, 12a), the “times more active against U87 cell line compared to the other three compounds” value is recorded as 2–3 times. Besides, the CC50 – broadly, the concentration giving 50% cytotoxicity – turned out to be 54.6 ± 3.4 µM with U87 cells, 220 ± 15.3 µM in the data set with SHSY5Y cells and 58.4 ± 5 µM with HaCaT cells.

As to `O=C(CSSCC(=O)N1CCOCC1)N1CCOCC1` [Compound 11c], the figures for the IC50 at TrxR1 [2] (setting [9]) and against TrxR1 [3] were 182 ± 32.2 µM and 190 ± 78.4 µM, respectively.

Turning to `O=C(CSSCC(=O)NC1CC1)NC1CC1` [Compound 11d], the concentration for half-maximal inhibition (IC50) was found to be 34.7 ± 9.1 µM at TrxR1 [2] (setting [9]) and 63.6 ± 27.5 µM against TrxR1 [3]. Besides, the 50% cytotoxic concentration (CC50) in the data set on U87 cells worked out at 180 ± 12.6 µM; in the data set with SHSY5Y cells it was 202 ± 12 µM; in the data set with HaCaT cells, 69 ± 3.4 µM.

With `COc1ccc(CNC(=O)CSSCC(=O)NCc2ccc(OC)cc2)cc1` [Compound 11e], the half-maximal inhibitory concentration (IC50) at TrxR1 [2] (setting [9]) and at TrxR1 [3] was above 200 µM in each case.

As to `CN1CCN(C(=O)CSSCC(=O)N2CCN(C)CC2)CC1` [Compound 11f], the concentration for half-maximal inhibition (IC50) at TrxR1 [2] (setting [9]) and against TrxR1 [3] was above 200 µM each time.

Consider `CC(C)(C)NC(=O)CSSCC(=O)NC(C)(C)C` [Compound 11g], for which the 50% inhibitory concentration (IC50) is 22.2 ± 3.1 µM at TrxR1 [2] (setting [9]) and above 200 µM against TrxR1 [3]. In addition, the values for the CC50 with U87 cells, in the data set with SHSY5Y cells and with HaCaT cells were 125 ± 15.6 µM, 174 ± 18.3 µM and 43 ± 2.9 µM, respectively. Moreover, the “inhibitory activity against neuroblastoma (SHSY5Y) cell lysate (in words)” value (“inhibitory activity” for short) against TrxR1 [3] is recorded as “virtually no activity”.

Consider `O=C(CSSCC(=O)Nc1ccc(F)cc1)Nc1ccc(F)cc1` [Compound 11h], for which the IC50 on TrxR1 [2] (setting [9]) and on TrxR1 [3] was above 200 µM throughout.

Consider `COc1ccc(NC(=O)CSSCC(=O)Nc2ccc(OC)cc2)cc1` [Compound 11i], for which the 50% inhibitory concentration (IC50) on TrxR1 [2] (setting [9]) and on TrxR1 [3] was above 200 µM throughout.

Turning to `NC(=O)CSSCC(N)=O` [Compound 11j], the IC50 was 90.4 ± 18.7 µM on TrxR1 [2] (setting [9]) and above 200 µM against TrxR1 [3]. In addition, the “inhibitory activity” value against TrxR1 [3] is on record as “virtually no activity”.

Consider `CCCNC(=O)CSSCC(=O)N1CCOCC1` [Compound 12a, 2-((2-Morpholino-2-oxoethyl)disulfanyl)-N-propylacetamide], for which the IC50 came to 45.6 ± 6.8 µM on TrxR1 [2] (setting [8]) and 44.4 ± 15.1 µM against TrxR1 [3]. In addition, the results for the 50% cytotoxic concentration (CC50) at 72 h in [4], in data set [5] and in data set [6] were 187 ± 15.9 µM, 176 ± 13.4 µM and 71.8 ± 6.9 µM, respectively.

For the compound `COC(=O)CSSCC(=O)Nc1ccc(F)cc1` [Compound 13a, Methyl 2-((2-((4-fluorophenyl)amino)-2-oxoethyl)disulfanyl)acetate], the results for the IC50 against TrxR1 [2] (setting [8]) and at TrxR1 [3] were above 200 µM and 186 ± 83.8 µM, respectively.

As for `O=C(O)CSSCC(=O)O` [Compound 14, 2,2′-disulfanediyldiacetic acid, reference compound], at TrxR1 [2] (setting [8]), the IC50 is above 200 µM. For the same compound, at TrxR1 [3], the “inhibitory activity” value was “virtually no activity” and the IC50 is above 200 µM.

`O=C([O-])CSSCC(=O)[O-].[Na+].[Na+]` [Compound 15, 2,2′-disulfanediyldiacetic acid disodium salt, reference compound]: the “activity against liver cell lysate (in words)” value on TrxR1 [7] was “completely devoid of inhibitory activity”. On TrxR1 [3], the “inhibitory activity” value was “completely devoid of inhibitory activity” and the IC50 was above 200 µM.

`COC(=O)CSSCC(=O)OC` [Compound 17, Dimethyl 2,2′-disulfanediyldiacetate] yielded a 50% inhibitory concentration (IC50) on TrxR1 [2] (setting [8]) above 200 µM. In addition, on TrxR1 [3], the “inhibitory activity” value was “virtually no activity” and the IC50 is above 200 µM.

These data come from PMC6374954, “Design, synthesis, and biological evaluation of novel derivatives of dithiodiglycolic acid prepared via oxidative coupling of thiols” (Journal of Enzyme Inhibition and Medicinal Chemistry, 2019).
